According to ChEMBL document CHEMBL5380785, “Application of Novel Degraders Employing Autophagy for Expediting Medicinal Research” (J Med Chem, 2023):

Legend:
[1] = molecular target: Bromodomain-containing protein 4 (Homo sapiens) (UniProt O60885); assay: Induction of BRD4 degradation in human HeLa cells relative to control; format: cell-based
[2] = molecular target: Bromodomain-containing protein 4 (Homo sapiens) (UniProt O60885); assay: Induction of BRD4 degradation in human MDA-MB-231 cells at 10 uM relative to control; format: cell-based
[3] = Downregulation of extracellular oleic acid induced lipid droplets in MEF cells; format: functional, Mus musculus
[4] = tested on: Cortical neuron; assay: Induction of huntingtin polyQ mutant degradation in mouse primary cortical neuron; format: cell-based; settings: dose 10.0 µM
[5] = molecular target: T1, Sequestosome-1/Estrogen receptor beta (Homo sapiens, UniProt Q92731+Q13501); assay: Autotac activity at p62/ERbeta degradation in HEK293T cells; format: cell-based
[6] = molecular target: T1, Sequestosome-1/Estrogen receptor beta; assay: Autotac activity at p62/ERbeta degradation in human ACHN cells; format: cell-based
[7] = molecular target: T1, Sequestosome-1/Estrogen receptor beta; assay: Autotac activity at p62/ERbeta degradation in human MCF7 cells; format: cell-based
[8] = molecular target: T2, Estrogen receptor beta (Homo sapiens, UniProt Q92731); assay: Induction of ERbeta degradation in human HEK293T cells; format: cell-based
[9] = molecular target: T2, Estrogen receptor beta; assay: Induction of ERbeta degradation in human ACHN cells; format: cell-based
[10] = molecular target: T2, Estrogen receptor beta; assay: Induction of ERbeta degradation in human MCF7 cells; format: cell-based
[11] = molecular target: Sequestosome-1/Microtubule-associated protein tau (Homo sapiens, UniProt P10636+Q13501, P618L); assay: Autotac activity at p62/tau P301L mutant in human SH-SY5Y cells assessed as tau P301L degradation; format: cell-based
[12] = Induction of huntingtin polyQ mutant degradation in human A 172 cells; format: cell-based
[13] = molecular target: T3, Nicotinamide phosphoribosyltransferase (Homo sapiens, UniProt P43490); assay: Induction of NAMPT degradation in human A2780 cells; format: cell-based
Target sequence in this assay (P43490 whole entry): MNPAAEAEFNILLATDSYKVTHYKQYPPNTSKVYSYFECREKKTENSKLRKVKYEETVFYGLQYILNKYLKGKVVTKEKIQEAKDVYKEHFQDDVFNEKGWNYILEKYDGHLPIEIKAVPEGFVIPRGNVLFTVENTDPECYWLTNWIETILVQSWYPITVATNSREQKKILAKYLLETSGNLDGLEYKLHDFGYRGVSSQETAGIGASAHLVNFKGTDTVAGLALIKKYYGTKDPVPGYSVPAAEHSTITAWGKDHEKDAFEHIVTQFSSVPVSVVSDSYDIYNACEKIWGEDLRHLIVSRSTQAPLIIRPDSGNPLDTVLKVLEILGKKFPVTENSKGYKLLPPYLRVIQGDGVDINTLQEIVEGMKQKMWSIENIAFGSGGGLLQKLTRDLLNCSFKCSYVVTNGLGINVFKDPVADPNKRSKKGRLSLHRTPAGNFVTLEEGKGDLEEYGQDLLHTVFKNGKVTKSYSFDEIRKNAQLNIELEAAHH

[14] = molecular target: T3, Nicotinamide phosphoribosyltransferase; assay: Induction of NAMPT degradation in human A2780 cells at 3 uM relative to control; format: cell-based
Target sequence in this assay (P43490 whole entry, looked up): as the sequence (P43490 whole entry) above

[15] = molecular target: T4, Methionine aminopeptidase 2 (Homo sapiens, UniProt P50579); assay: Induction of MetAP2 degradation in human HEK293 cells; format: cell-based
[16] = molecular target: T4, Methionine aminopeptidase 2; assay: Induction of MetAP2 degradation in human U87MG cells; format: cell-based; settings: u87mg human egfr viii
[17] = molecular target: T5, Androgen receptor (Homo sapiens, UniProt P10275); assay: Induction of AR degradation in human LNCaP cells; format: cell-based
T5 sequence (P10275 whole entry): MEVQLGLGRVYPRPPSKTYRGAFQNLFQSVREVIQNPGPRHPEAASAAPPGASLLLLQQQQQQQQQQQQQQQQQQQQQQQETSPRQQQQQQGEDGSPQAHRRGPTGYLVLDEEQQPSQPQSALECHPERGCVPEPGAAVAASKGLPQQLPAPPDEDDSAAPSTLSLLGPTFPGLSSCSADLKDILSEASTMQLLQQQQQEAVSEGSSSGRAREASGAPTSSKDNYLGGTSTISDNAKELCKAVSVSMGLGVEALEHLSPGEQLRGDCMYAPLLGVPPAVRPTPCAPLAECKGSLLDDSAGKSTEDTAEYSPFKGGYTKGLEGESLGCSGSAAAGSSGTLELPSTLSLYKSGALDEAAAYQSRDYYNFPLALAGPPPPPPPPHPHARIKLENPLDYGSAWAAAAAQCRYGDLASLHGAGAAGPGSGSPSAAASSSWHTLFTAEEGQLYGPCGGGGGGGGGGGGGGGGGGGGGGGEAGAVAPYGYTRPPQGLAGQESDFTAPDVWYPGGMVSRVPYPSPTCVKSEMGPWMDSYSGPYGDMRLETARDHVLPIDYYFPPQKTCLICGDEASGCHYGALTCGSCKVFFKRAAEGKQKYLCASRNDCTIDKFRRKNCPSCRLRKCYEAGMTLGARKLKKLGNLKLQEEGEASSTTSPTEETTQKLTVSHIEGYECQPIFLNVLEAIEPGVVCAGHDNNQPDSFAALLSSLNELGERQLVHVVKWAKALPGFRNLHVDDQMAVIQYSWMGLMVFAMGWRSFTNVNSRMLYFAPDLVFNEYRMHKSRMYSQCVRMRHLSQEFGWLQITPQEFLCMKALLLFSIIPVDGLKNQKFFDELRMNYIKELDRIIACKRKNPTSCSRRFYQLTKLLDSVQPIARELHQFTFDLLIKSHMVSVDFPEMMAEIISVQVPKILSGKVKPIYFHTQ

T2 sequence (Q92731 whole entry): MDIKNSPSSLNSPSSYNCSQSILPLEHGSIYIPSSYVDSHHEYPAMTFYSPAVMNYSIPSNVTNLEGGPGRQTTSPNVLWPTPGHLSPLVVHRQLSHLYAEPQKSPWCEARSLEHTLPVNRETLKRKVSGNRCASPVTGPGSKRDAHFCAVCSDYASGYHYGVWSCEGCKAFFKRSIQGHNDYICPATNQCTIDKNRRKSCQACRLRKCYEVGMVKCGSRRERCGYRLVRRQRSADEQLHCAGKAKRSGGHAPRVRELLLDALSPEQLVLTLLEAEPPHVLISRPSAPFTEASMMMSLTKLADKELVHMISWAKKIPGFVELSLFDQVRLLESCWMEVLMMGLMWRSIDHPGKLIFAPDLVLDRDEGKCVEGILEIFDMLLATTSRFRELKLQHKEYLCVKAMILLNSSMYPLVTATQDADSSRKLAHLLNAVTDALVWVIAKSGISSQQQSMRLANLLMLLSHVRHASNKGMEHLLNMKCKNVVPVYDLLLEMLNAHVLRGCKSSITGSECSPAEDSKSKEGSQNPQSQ
T1 sequence (Q92731 whole entry): as above
T1 sequence (Q13501 whole entry): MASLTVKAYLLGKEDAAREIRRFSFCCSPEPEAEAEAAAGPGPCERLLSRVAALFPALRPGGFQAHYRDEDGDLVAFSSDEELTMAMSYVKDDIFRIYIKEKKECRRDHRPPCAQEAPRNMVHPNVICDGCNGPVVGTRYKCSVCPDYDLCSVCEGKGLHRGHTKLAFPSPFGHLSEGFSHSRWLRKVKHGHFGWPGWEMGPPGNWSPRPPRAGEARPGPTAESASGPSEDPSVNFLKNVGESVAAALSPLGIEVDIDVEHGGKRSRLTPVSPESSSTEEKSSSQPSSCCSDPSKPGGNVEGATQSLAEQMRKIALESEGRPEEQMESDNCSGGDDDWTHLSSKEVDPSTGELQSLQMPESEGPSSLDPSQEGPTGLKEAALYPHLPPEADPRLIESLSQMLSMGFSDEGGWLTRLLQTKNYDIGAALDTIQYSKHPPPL
T4 sequence (P50579 whole entry): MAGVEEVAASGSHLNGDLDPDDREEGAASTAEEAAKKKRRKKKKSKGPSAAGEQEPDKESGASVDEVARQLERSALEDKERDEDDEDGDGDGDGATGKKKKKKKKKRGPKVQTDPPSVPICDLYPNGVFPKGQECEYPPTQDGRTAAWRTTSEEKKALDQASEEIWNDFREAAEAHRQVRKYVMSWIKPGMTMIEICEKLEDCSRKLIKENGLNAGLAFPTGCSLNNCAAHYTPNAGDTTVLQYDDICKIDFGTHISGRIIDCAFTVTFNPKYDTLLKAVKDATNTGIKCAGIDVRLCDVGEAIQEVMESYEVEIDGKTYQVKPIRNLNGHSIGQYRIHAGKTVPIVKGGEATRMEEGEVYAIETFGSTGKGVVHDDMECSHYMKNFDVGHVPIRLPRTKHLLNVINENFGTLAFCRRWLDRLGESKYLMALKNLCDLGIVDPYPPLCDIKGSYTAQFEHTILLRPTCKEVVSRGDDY
Sequestosome-1/Microtubule-associated protein tau, sequence (P10636 2-758 P618L limits assumed, stated change not applied): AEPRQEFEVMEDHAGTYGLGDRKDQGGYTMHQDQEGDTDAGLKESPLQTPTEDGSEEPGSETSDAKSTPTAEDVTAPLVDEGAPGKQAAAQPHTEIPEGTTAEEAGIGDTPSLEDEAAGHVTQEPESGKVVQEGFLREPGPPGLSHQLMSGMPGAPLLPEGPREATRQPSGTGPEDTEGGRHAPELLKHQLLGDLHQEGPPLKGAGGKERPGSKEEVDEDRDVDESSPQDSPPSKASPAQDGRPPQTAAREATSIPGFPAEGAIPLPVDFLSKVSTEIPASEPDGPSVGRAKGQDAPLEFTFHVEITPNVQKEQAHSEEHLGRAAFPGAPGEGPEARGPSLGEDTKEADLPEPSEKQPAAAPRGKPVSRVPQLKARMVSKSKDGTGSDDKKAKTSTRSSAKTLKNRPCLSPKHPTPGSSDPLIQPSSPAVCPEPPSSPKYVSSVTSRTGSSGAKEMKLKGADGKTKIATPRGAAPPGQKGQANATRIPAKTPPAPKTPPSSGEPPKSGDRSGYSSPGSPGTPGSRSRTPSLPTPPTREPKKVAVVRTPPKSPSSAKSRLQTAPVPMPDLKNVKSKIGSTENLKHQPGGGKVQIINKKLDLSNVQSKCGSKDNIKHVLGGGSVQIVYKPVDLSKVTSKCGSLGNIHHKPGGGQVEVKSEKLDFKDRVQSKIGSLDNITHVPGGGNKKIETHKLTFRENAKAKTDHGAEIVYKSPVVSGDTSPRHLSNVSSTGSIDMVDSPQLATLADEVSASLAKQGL
Sequestosome-1/Microtubule-associated protein tau, sequence (Q13501 2-440 limits assumed, stated change not applied): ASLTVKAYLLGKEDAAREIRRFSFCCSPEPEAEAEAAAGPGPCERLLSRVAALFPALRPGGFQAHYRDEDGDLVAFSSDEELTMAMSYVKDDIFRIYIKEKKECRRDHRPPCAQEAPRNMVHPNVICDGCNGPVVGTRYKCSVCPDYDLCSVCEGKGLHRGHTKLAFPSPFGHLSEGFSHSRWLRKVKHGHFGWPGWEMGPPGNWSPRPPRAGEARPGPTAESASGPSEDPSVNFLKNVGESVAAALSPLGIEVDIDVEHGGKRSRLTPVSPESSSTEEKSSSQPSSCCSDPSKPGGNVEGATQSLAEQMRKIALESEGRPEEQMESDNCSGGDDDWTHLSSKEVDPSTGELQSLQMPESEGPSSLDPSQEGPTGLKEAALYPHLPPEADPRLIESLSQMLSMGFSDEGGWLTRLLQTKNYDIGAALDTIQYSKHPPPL

CC1=C(C)C2C(c3ccc(Cl)cc3)=N[C@@H](CC(=O)NCCCOCCOCCOCCCNC(=O)COc3c(Br)cc(/C=C4\C(=O)Nc5ccc(I)cc54)cc3Br)c3nnc(C)n3C2S1 (some centres undefined)
Activity [1]: 92% | Activity [2]: 99%

Cc1ccccc1/N=N/c1ccc(/N=N/c2c(OCCCCCCCCCCOc3cc(O)cc4oc(=O)cc(-c5ccccc5)c34)ccc3ccccc23)c(C)c1
ED [3]: 5 µM

O=c1cc(-c2ccccc2)c2c(O)cc(O)cc2o1
ED [4]: 75 nM

O[C@H](CNCCOCCOCCOc1ccc(-c2c(-c3ccccc3)nn3c(C(F)(F)F)cc(C(F)(F)F)nc23)cc1)COc1ccc(OCc2ccccc2)c(OCCCc2ccccc2)c1
DC50 [5]: 2 nM | DC50 [6]: < 100 nM | DC50 [7]: < 100 nM | DC50 [8]: 2 nM | DC50 [9]: < 100 nM | DC50 [10]: < 100 nM

O=C(CCCc1ccccc1)NCCOCCOCCOCCNCc1ccc(OCc2ccccc2)c(OCc2ccccc2)c1
DC50 [11]: 1 nM

H-GIYVIWGPITERKKRRKG-NH2
IC50 [12]: 57.2 nM

Cc1ccc(C(=O)N(CCCNC(=O)CCCCCCCCN2CCN(S(=O)(=O)c3ccc(NC(=S)NCc4cccnc4)cc3)CC2)[C@@H](c2nc3cc(Cl)ccc3c(=O)n2Cc2ccccc2)C(C)C)cc1
IC50 [13]: 40 nM | Activity [14]: 91%

O=C1Nc2ccc(Br)cc2/C1=C/c1cc(O)c(O)c(Br)c1
ED [4]: 50 nM

Cc1ccccc1/N=N/c1ccc(/N=N/c2c(OCCCCCCCCCCN3C(=O)/C(=C\c4cc(Br)c(O)c(Br)c4)c4cc(I)ccc43)ccc3ccccc23)c(C)c1
ED [3]: 5 µM

COC1C(OC(=O)/C=C/C=C/C=C/C=C/C(=O)NCCOCCOCCNCc2cccc(OCc3ccccc3)c2)CCC2(CO2)C1C1(C)OC1CC=C(C)C (centres undefined)
DC50 [15]: 700 nM | DC50 [16]: 500 nM

C=CC(C)(O)C(=O)N(C(=O)NCCOCCOCCNC[C@@H](O)COc1ccc(OCCc2ccccc2)c(OCCCc2ccccc2)c1)c1cc(Cl)cc(Cl)c1 (some centres undefined)
DC50 [17]: 200 nM
